ChEMBL document CHEMBL3885881, “DrugMatrix”

Organism: Rattus norvegicus
Test: DrugMatrix - Regimen: Daily Repeat
Format: toxicity, organism-based, Sprague-Dawley
Parameters: regimen Daily Repeat, gender Male, age 6-8 weeks
Details: in vivo, po, route oral GAVAGE, […]; for ABSOLUTE BASOPHIL / ABSOLUTE EOSINOPHIL / ABSOLUTE LYMPHOCYTE / ABSOLUTE MONOCYTE / ABSOLUTE SEGMENTED NEUTROPHIL / BASOPHIL / EOSINOPHIL / ERYTHROCYTE COUNT / HEMATOCRIT / HEMOGLOBIN / LEUKOCYTE COUNT / LYMPHOCYTE / MEAN CORPUSCULAR HEMOGLOBIN / MEAN CORPUSCULAR HEMOGLOBIN CONCENTRATION / MEAN CORPUSCULAR VOLUME / MONOCYTE / NEUTROPHIL / NUCLEATED RED BLOOD CELLS / PLATELET COUNT: tissue Blood; for ALANINE AMINOTRANSFERASE / ALBUMIN / ALKALINE PHOSPHATASE / ASPARTATE AMINOTRANSFERASE / BLOOD UREA NITROGEN / CARBON DIOXIDE / CHLORIDE / CHOLESTEROL / CREATINE PHOSPHOKINASE / CREATININE / GLUCOSE / LACTATE DEHYDROGENASE / LIPASE / PHOSPHORUS / POTASSIUM / SODIUM / TOTAL BILIRUBIN / TOTAL PROTEIN / URIC ACID: tissue Plasma
[1] = 0 mg/kg, 72 h, dose level Control, time 3 day
[2] = 0 mg/kg, 120 h, dose level Control, time 5 day
[3] = 30 mg/kg, 72 h, dose level Low, time 3 day

## Cc1oncc1C(=O)Nc1ccc(C(F)(F)F)cc1 [LEFLUNOMIDE]
[1]
  ABSOLUTE BASOPHIL: 0 CELLS/uL
  ABSOLUTE EOSINOPHIL: 52.33 CELLS/uL
  ABSOLUTE LYMPHOCYTE: 9105.33 CELLS/uL
  ABSOLUTE MONOCYTE: 155.67 CELLS/uL
  ABSOLUTE SEGMENTED NEUTROPHIL: 1020 CELLS/uL
  BASOPHIL: 0%
  EOSINOPHIL: 0.33%
  ERYTHROCYTE COUNT: 5.03 x10E6/uL
  HEMATOCRIT: 31.63%
  HEMOGLOBIN: 12.37 G/DL
  LEUKOCYTE COUNT: 10.33 x10E3/uL
  LYMPHOCYTE: 87%
  MEAN CORPUSCULAR HEMOGLOBIN: 24.57 pg
  MEAN CORPUSCULAR HEMOGLOBIN CONCENTRATION: 39.07 G/DL
  MEAN CORPUSCULAR VOLUME: 62.93 fL
  MONOCYTE: 1.33%
  NEUTROPHIL: 11.33%
  NUCLEATED RED BLOOD CELLS: 0 /100WBC
  PLATELET COUNT: 896 x10E3/uL
  ALANINE AMINOTRANSFERASE: 75.33 u/L
  ALBUMIN: 3.77 G/DL
  ALKALINE PHOSPHATASE: 378.67 u/L
  ASPARTATE AMINOTRANSFERASE: 101.33 u/L
  BLOOD UREA NITROGEN: 11.33 mg/dL
  CARBON DIOXIDE: 25 mmol/L
  CHLORIDE: 99 MEQ/L
  CHOLESTEROL: 66 mg/dL
  CREATINE PHOSPHOKINASE: 277 u/L
  CREATININE: 0.33 mg/dL
  GLUCOSE: 198.33 mg/dL
  LACTATE DEHYDROGENASE: 140.33 u/L
  LIPASE: 11.33 u/L
  PHOSPHORUS: 11.83 mg/dL
  POTASSIUM: 5.37 MEQ/L
  SODIUM: 141.03 MEQ/L
  TOTAL BILIRUBIN: 0.2 mg/dL
  TOTAL PROTEIN: 5.47 G/DL
  URIC ACID: 0.93 mg/dL
[2]
  ABSOLUTE BASOPHIL: 0 CELLS/uL
  ABSOLUTE EOSINOPHIL: 0 CELLS/uL
  ABSOLUTE LYMPHOCYTE: 8734 CELLS/uL
  ABSOLUTE MONOCYTE: 98.67 CELLS/uL
  ABSOLUTE SEGMENTED NEUTROPHIL: 1034 CELLS/uL
  BASOPHIL: 0%
  EOSINOPHIL: 0%
  ERYTHROCYTE COUNT: 5.19 x10E6/uL
  HEMATOCRIT: 33.2%
  HEMOGLOBIN: 12.93 G/DL
  LEUKOCYTE COUNT: 9.87 x10E3/uL
  LYMPHOCYTE: 87%
  MEAN CORPUSCULAR HEMOGLOBIN: 25 pg
  MEAN CORPUSCULAR HEMOGLOBIN CONCENTRATION: 39.03 G/DL
  MEAN CORPUSCULAR VOLUME: 63.93 fL
  MONOCYTE: 1%
  NEUTROPHIL: 12%
  NUCLEATED RED BLOOD CELLS: 0 /100WBC
  PLATELET COUNT: 1190 x10E3/uL
  ALANINE AMINOTRANSFERASE: 75.67 u/L
  ALBUMIN: 4 G/DL
  ALKALINE PHOSPHATASE: 384.33 u/L
  ASPARTATE AMINOTRANSFERASE: 89.67 u/L
  BLOOD UREA NITROGEN: 13 mg/dL
  CARBON DIOXIDE: 32.67 mmol/L
  CHLORIDE: 103 MEQ/L
  CHOLESTEROL: 79.67 mg/dL
  CREATINE PHOSPHOKINASE: 199.33 u/L
  CREATININE: 0.29 mg/dL
  GLUCOSE: 161.33 mg/dL
  LACTATE DEHYDROGENASE: 92.33 u/L
  LIPASE: 11.67 u/L
  PHOSPHORUS: 10.8 mg/dL
  POTASSIUM: 5.38 MEQ/L
  SODIUM: 145.3 MEQ/L
  TOTAL BILIRUBIN: 0.17 mg/dL
  TOTAL PROTEIN: 5.7 G/DL
  URIC ACID: 0.63 mg/dL
[3]
  ABSOLUTE BASOPHIL: 0 CELLS/uL
  ABSOLUTE EOSINOPHIL: 0 CELLS/uL
  ABSOLUTE LYMPHOCYTE: 5968 CELLS/uL
  ABSOLUTE MONOCYTE: 69 CELLS/uL
  ABSOLUTE SEGMENTED NEUTROPHIL: 863 CELLS/uL
  BASOPHIL: 0%
  EOSINOPHIL: 0%
  ERYTHROCYTE COUNT: 5.11 x10E6/uL
  HEMATOCRIT: 32.33%
  HEMOGLOBIN: 12.8 G/DL
  LEUKOCYTE COUNT: 6.9 x10E3/uL
  LYMPHOCYTE: 87%
  MEAN CORPUSCULAR HEMOGLOBIN: 25.03 pg
  MEAN CORPUSCULAR HEMOGLOBIN CONCENTRATION: 39.63 G/DL
  MEAN CORPUSCULAR VOLUME: 63.2 fL
  MONOCYTE: 1%
  NEUTROPHIL: 12%
  NUCLEATED RED BLOOD CELLS: 0 /100WBC
  PLATELET COUNT: 794.67 x10E3/uL
  ALANINE AMINOTRANSFERASE: 46.33 u/L
  ALBUMIN: 3.67 G/DL
  ALKALINE PHOSPHATASE: 251.33 u/L
  ASPARTATE AMINOTRANSFERASE: 75.67 u/L
  BLOOD UREA NITROGEN: 8 mg/dL
  CARBON DIOXIDE: 29.67 mmol/L
  CHLORIDE: 101.33 MEQ/L
  CHOLESTEROL: 98.67 mg/dL
  CREATINE PHOSPHOKINASE: 199.67 u/L
  CREATININE: 0.1 mg/dL
  GLUCOSE: 181.33 mg/dL
  LACTATE DEHYDROGENASE: 70 u/L
  LIPASE: 10.67 u/L
  PHOSPHORUS: 9.87 mg/dL
  POTASSIUM: 4.69 MEQ/L
  SODIUM: 144.17 MEQ/L
  TOTAL BILIRUBIN: 0.13 mg/dL
  TOTAL PROTEIN: 5.17 G/DL
  URIC ACID: 0.53 mg/dL
